Reference: patent publication US11040954B1, “CXCR3 receptor agonists” (RECEPTOS LLC, priority 2016, dated 2021)

Legend:
CXCR3 = biological target: T1, CXCR3 (Homo sapiens, UniProt P49682); experiment: CXCR3 cAMP agonist assay (cAMP Hunter CHOK1 CXCR3 Gi cell line, forskolin-stimulated, HitHunter cAMP detection); format: cell-based; details: cAMP Hunter CHOK1 CXCR3 Gi cells, 20 μM forskolin, 30 minutes; read-out: Activity (CXCR3 cAMP agonist assay compound EC50)
T1 construct: host or cells: CHO-K1 (cAMP Hunter CHOK1 CXCR3 Gi cell line)
T1 sequence (P49682 1-368): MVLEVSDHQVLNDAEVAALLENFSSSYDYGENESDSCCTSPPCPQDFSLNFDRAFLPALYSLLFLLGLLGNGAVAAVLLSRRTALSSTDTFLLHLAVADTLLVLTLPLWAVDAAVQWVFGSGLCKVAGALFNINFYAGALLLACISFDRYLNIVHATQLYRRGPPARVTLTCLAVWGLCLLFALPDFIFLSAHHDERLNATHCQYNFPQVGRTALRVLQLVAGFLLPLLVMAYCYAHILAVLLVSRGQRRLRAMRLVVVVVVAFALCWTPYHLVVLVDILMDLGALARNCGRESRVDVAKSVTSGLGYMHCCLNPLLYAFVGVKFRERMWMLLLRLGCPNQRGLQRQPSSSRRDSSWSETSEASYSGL
Procedure, shortened: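 Agonist activity was measured as suppression of forskolin (20 μM)-induced cAMP, read by luminescent enzyme-fragment complementation with a cAMP standard curve and CXCL11 defining full efficacy. Assay used 50,000 CXCR3 Gi CHOK1 cells/well in pH 7.4 HEPES-buffered HBSS with 0.1% BSA, compound 0-10 μM over 12 points, 30 min incubation.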

[1] = Mouse pharmacokinetics after oral gavage, plasma drug concentration by LC-MS/MS (C57BL/6); format: in vivo, C57bl/6 mice; details: male mice; for Cmax / AUC(0-t): mouse, plasma; for AUC(0-t): read-out: AUC0-24
Method: (§1) Compounds were formulated in 5% DMSO/5% Tween20 in H2O, sonicated, vortexed, and put on stir plate overnight at a dose volume of 10 mL/kg. Balb/C (Jackson laboratories) or C57bl/6 (Taconic Biosciences) mice (8-9 weeks old) were acclimated to the colony for 3 days prior to dosing. Water and food were provided ab libitum. Compounds were administered by oral gavage. Groups of six animals received 3 to 4 bleeds per day with one terminal bleed. The time points were 30 min, 1 h, 2 h, 4 h, 6 h, 8 h, 24 h. Plasma was collected via centrifugation and analyzed for drug concentrations.
(§2) Preparation of Study Samples and Standards for Analysis by LC-MS/MS
(§3) 50 μl of plasma was aliquoted into a 96 well deep-well polypropylene plate (2 mL) to which 5 μL of DMSO was added. For standards, 5 μl of test compound in DMSO at […] the standard concentration was added to 50 μl of blank matrix in a 96 well deep-well polypropylene plate. For example, for a 300 nM standard, the 10× DMSO concentration was 3 μM. Study samples that require dilution are diluted with the appropriate blank matrix. For example, for a 10× dilution, 5 μL of study sample is added to 45 μl of blank matrix. Protein was precipitated from study samples and standards with the addition of 150 μl of acetonitrile. After a clean plate map was placed firmly over the top of the 96-well plate, a bench top shaker was used for 1 min to ensure complete precipitation of protein. The precipitated protein was pelleted by centrifuging for 3,000 rpm for 10 min at 20° C. and then the clear supernatant was transferred to a clean 96-well plate and spun again under the same conditions in order to pellet any solid material that may have been transferred.
(§4) Analysis of Study Samples and Standards with LCMS with MRM Detection
(§5) An Agilent 1200 HPLC with binary pump and a Leap CTC with fast wash autosampler were used to introduce samples to the mass spectrometer.
(§6) The column used was a Phenomenex Luna C8 30×2 mm 5 μm with a security guard. Mass detection was performed by an Applied Biosystems 4000 Qtrap in MRM mode and ionization was achieved by positive electrospray with a source temperature of 500° C. The ion transitions, […] potential and collision energies were dependent on the specific analyte.
(§7) Prepared samples were usually analyzed in reverse chronological order with bracketing standard curves. Typically at least 6 standards were used for quantification with a percent accuracy of +/−15% for all standards except at the LLOQ where a percent accuracy of +/−20% was allowed. The concentration time profile was fit using a one compartment model for the applicable mode of dosing using Phoenix WinNonLin 6.4.

[2] = Mouse pharmacokinetics after oral gavage, plasma drug concentration by LC-MS/MS (BALB/c); format: in vivo; details: 10 mg/kg, male mice; for Cmax / AUC(0-t): mouse, plasma; for AUC(0-t): read-out: AUC0-24
Method: as §1, §2, §3, §4, §5, §6, §7

SMILES | EC50 (CXCR3) [µM] | apparent oral clearance (CL/F) ([1]; C57BL/6, 10 mg/kg) | Cmax ([1]; C57BL/6, 10 mg/kg) [µM] | AUC(0-t) ([1]; C57BL/6, 10 mg/kg) [µM·h] | apparent oral clearance (CL/F) [2] | Cmax [2] [µM] | AUC(0-t) [2] [µM·h] | apparent oral clearance (CL/F) ([1]; C57BL/6, 60 mg/kg) [L/h/kg] | Cmax ([1]; C57BL/6, 60 mg/kg) [µM] | AUC(0-t) ([1]; C57BL/6, 60 mg/kg) [µM·h] | AUC0-24 [2] | AUC0-24 ([1]; C57BL/6, 10 mg/kg)
NCCCC[C@H](NC(=O)[C@@H]1Cc2ccccc2CN1C(=O)CCC(=O)c1ccccc1)C(=O)NCC(c1ccccc1)c1ccccc1 [B] |  | 540 L/h/kg | 0.03 | 0.029 | BQL | 0.007 |  |  |  |  | BLQ | 
N=C(N)NCCC[C@H](NC(=O)[C@@H]1Cc2ccccc2CN1C(=O)CCC(=O)c1ccccc1)C(=O)NCC1CCCCC1 [A] |  | BQL | 0.002 |  | BQL | 0.004 |  |  |  |  | BLQ | BQL
CNCCCC[C@H](NC(=O)[C@@H]1Cc2ccccc2CN1C(=O)CCC(=O)c1ccccc1)C(=O)Nc1ccc(Cl)c(C)c1 [Compound 4-4] | < 0.05 |  |  |  |  | 0.02 | 0.03 |  |  |  |  | 
Cc1cc(NC(=O)[C@H](CCN)NC(=O)[C@@H]2Cc3ccccc3CN2C(=O)CCC(=O)c2ccccc2)ccc1Cl [Compound 2-2] | < 0.05 | 10.6 L/h/kg | 0.9 | 1.7 |  | 3.5 |  | 16 | 2.7 | 6.7 |  | 
Cc1cc(Cl)c(Cl)cc1NC(=O)[C@H](CCN)NC(=O)[C@@H]1Cc2ccccc2CN1C(=O)CCC(=O)c1ccccc1 [Compound 2-21] | < 0.05 |  |  |  | 3.9 L/h/kg | 0.9 | 4.3 |  |  |  |  | 
Cc1ccc(NC(=O)[C@H](CCN)NC(=O)[C@@H]2Cc3ccccc3CN2C(=O)CCC(=O)c2ccccc2)cc1C [Compound 2-3] | < 0.05 |  |  |  | 24.2 L/h/kg | 0.4 | 0.8 |  |  |  |  | 
Cc1cc(NC(=O)[C@H](CCN)NC(=O)[C@@H]2Cc3ccccc3CN2C(=O)CCC(=O)c2ccccc2)c(C)cc1Cl [Compound 2-19] | < 0.05 |  |  |  | 3.54 L/h/kg | 1.3 | 4.9 |  |  |  |  | 
Cc1c(Cl)ccc(NC(=O)[C@H](CCN)NC(=O)[C@@H]2Cc3ccccc3CN2C(=O)CCC(=O)c2ccccc2)c1C [Compound 2-26] | < 0.05 |  |  |  | 4.56 L/h/kg | 0.9 | 3.8 |  |  |  |  | 

Continued, values first:

EC50 (CXCR3) [µM] | apparent oral clearance (CL/F) ([1]; C57BL/6, 10 mg/kg) | Cmax ([1]; C57BL/6, 10 mg/kg) [µM] | AUC(0-t) ([1]; C57BL/6, 10 mg/kg) [µM·h] | apparent oral clearance (CL/F) [2] | Cmax [2] [µM] | AUC(0-t) [2] [µM·h] | apparent oral clearance (CL/F) ([1]; C57BL/6, 60 mg/kg) [L/h/kg] | Cmax ([1]; C57BL/6, 60 mg/kg) [µM] | AUC(0-t) ([1]; C57BL/6, 60 mg/kg) [µM·h] | AUC0-24 [2] | AUC0-24 ([1]; C57BL/6, 10 mg/kg) | SMILES
< 0.05 | 14.8 L/h/kg | 0.33 | 1.2 | 3.36 L/h/kg | 0.8 | 4.9 |  |  |  |  |  | Cc1cc(NC(=O)[C@H](CCNC(C)C)NC(=O)[C@@H]2Cc3ccccc3CN2C(=O)CCC(=O)c2ccccc2)ccc1Cl [Compound 8-3]
< 0.05 | 140.8 L/h/kg | 0.07 | 0.11 | 9.48 L/h/kg | 1.2 | 1.7 |  |  |  |  |  | Cc1cc(NC(=O)[C@H](CCCCNC(C)C)NC(=O)[C@@H]2Cc3ccccc3CN2C(=O)CCC(=O)c2ccccc2)ccc1Cl [Compound 4-6]
< 0.05 | 2.28 L/h/kg | 1 | 7 | 1.38 L/h/kg | 3.3 | 12.3 | 3.48 | 3 | 29 |  |  | NCC[C@H](NC(=O)[C@@H]1Cc2ccccc2CN1C(=O)CCC(=O)c1ccccc1)C(=O)Nc1ccc(Cl)c(Cl)c1F [Compound 2-24]
< 0.05 | 1.14 L/h/kg | 2.9 | 15.1 | 0.6 L/h/kg | 4.2 | 27 |  |  |  |  |  | Cc1cc(NC(=O)[C@H](CCN)NC(=O)[C@@H]2Cc3ccccc3CN2C(=O)CCC(=O)c2ccccc2)c(Cl)cc1Cl [Compound 2-22]
